Reference: patent US20080255134A1 (Artesian Therapeutics, Inc., priority 2004, published 2008)
Like-named read-outs stand apart in the source and are kept apart here.

Molecular target: T1, PDE3 (Homo sapiens, UniProt Q14432)
T1 construct: from tissue; host or cells: human platelets
Experiment: In vitro assay for cAMP PDE-3 inhibitory activity
Format: biochemical
Conditions: human platelet cyclic AMP phosphodiesterase, bound stated
Description: Human platelet cyclic AMP phosphodiesterase was prepared according to the method of Alvarez et al., Mol. Pharmacol. 29: 554 (1986). The PDE incubation medium contained 10 mM Tris-HCl buffer, pH 7.7, 10 mM MgSO4, and 1 μM […] (0.2 μCi) in a total volume of 1.0 mL. Test compounds were dissolved in DMSO immediately prior to addition to the incubation medium, and the resulting mixture was allowed to stand for 10 minutes prior to the addition of enzyme. Following the addition of PDE, the contents were mixed and incubated for 10 minutes at 30° C. Three assays each were performed for each of five test compound concentrations, the mean of the determinations (n=3) at each concentration was plotted, and IC50 values were determined graphically.
The ability of Compounds 25 and 8c to inhibit PDE3 and β-adrenergic receptor activity was examined both in vitro and in vivo. […] Non-selective β-adrenergic and β1-adrenergic radioligand binding assays were performed using rat cortical membranes; β2-adrenergic receptor assays were performed using membranes isolated from CHO cells expressing human, recombinant b2-adrenergic receptor; non-selective α1-adrenergic receptor assays were performed using rat forebrain membranes; and PDE3 binding assays were performed on human platelets. Values in percent illustrate percent inhibition at 1000 nM concentration.

[1] = read-out: PDE IC50 inhibition values

T1 sequence (Q14432 whole entry): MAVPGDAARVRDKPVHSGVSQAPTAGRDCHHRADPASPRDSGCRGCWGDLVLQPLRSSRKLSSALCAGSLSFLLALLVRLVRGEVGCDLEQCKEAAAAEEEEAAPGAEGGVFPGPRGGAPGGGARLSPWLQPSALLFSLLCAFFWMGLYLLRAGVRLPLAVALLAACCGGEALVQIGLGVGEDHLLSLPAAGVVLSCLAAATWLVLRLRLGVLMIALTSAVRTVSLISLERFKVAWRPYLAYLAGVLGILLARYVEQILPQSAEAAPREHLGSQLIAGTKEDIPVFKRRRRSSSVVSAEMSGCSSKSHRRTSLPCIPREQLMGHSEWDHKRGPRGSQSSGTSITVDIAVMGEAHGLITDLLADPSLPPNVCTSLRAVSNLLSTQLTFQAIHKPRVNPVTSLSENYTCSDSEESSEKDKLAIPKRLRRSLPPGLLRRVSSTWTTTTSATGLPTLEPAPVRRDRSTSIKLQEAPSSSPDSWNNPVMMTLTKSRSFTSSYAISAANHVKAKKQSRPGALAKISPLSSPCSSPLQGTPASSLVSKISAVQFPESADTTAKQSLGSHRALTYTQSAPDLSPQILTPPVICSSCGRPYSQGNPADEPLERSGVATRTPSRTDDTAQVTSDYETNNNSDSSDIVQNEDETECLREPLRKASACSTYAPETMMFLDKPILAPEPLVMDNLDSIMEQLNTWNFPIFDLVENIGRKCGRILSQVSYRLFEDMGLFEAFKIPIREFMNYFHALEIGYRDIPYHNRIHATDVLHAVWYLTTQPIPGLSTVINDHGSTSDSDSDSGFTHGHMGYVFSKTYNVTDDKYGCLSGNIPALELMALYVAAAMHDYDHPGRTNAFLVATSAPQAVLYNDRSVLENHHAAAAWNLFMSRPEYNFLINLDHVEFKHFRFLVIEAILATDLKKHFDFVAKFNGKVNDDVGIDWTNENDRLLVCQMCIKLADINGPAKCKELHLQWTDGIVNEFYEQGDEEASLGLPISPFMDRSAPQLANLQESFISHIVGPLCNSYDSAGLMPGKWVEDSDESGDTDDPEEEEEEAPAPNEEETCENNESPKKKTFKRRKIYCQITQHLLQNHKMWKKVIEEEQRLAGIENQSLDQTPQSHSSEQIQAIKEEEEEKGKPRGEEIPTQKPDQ

IC50 (read-out: PDE3 inhibition IC50) [nM] | IC50 [1] [nM] | Compound
< 1000 | – | CC(=O)c1ccccc1OC[C@@H](O)CNC1CCN(C(=O)COc2ccc(C3=NNC(=O)CC3)cc2Cl)CC1 [Compound 8k, 6-[4-(2-{4-[3-(2-acetyl-phenoxy)-2-hydroxy-propylamino]-piperidin-1-yl}-2-oxo-ethoxy)-3-chloro-phenyl]-4,5-dihydro-2H-pyridazin-3-one]
< 1000 | – | N#Cc1cccc(OC[C@@H](O)CNC2CCN(C(=O)COc3ccc(C4=NNC(=O)CC4)cc3Cl)CC2)c1 [Compound 8m, 3-[3-(1-{2-[2-chloro-4-(6-oxo-1,4,5,6-tetrahydro-pyridazin-3-yl)-phenoxy]-acetyl}-piperidin-4-ylamino)-2-hydroxy-propoxy]-benzonitrile]
< 1000 | – | O=C1CCC(c2ccc(OCC(=O)N3CCC(NC[C@H](O)COc4ccccc4)CC3)c(Cl)c2)=NN1 [Compound 8a, 6-(3-chloro-4-{2-[4-(2-hydroxy-3-phenoxy-propylamino)-piperidin-1-yl]-2-oxo-ethoxy}-phenyl)-4,5-dihydro-2H-pyridazin-3-one]
< 1000 | – | Cc1ccccc1OC[C@@H](O)CNC1CCN(C(=O)COc2ccc(C3=NNC(=O)CC3)cc2Cl)CC1 [Compound 8f, 6-(3-chloro-4-{2-[4-(2-hydroxy-3-o-tolyloxy-propylamino)-piperidin-1-yl]-2-oxo-ethoxy}-phenyl)-4,5-dihydro-2H-pyridazin-3-one]
< 1000 | – | CC(C)(CNC(=O)COc1ccc(C2=NNC(=O)CC2)cc1Cl)NCC(O)COc1c(Br)ccc2[nH]c3ccccc3c12 (centres unmarked) [Compound 72a, N-{2-[3-(3-Bromo-9H-carbazol-4-yloxy)-2-hydroxy-propylamino]-2-methyl-propyl}-2-[2-chloro-4-(6-oxo-1,4,5,6-tetrahydro-pyridazin-3-yl)-phenoxy]-acetamide]
< 1000 | < 100 | O=C1CCC(c2ccc(OCC(=O)N3CCC(NC[C@H](O)COc4ccccc4OC(F)(F)F)CC3)c(Cl)c2)=NN1 [Compound 8i, 6-[3-chloro-4-(2-{4-[2-hydroxy-3-(2-trifluoromethoxy-phenoxy)-propylamino]-piperidin-1-yl}-2-oxo-ethoxy)-phenyl]-4,5-dihydro-2H-pyridazin-3-one]
< 1000 | – | O=C1CCC(c2ccc(OCC(=O)N3CCC(NC[C@H](O)COc4ccccc4F)CC3)c(Cl)c2)=NN1 [Compound 8b, 6-[3-Chloro-4-(2-{4-[3-(2-fluoro-phenoxy)-2-hydroxy-propylamino]-piperidin-1-yl}-2-oxo-ethoxy)-phenyl]-4,5-dihydro-2H-pyridazin-3-one]
< 1000 | – | O=C1CCC(c2ccc(OCC(=O)N3CCC(NC[C@H](O)COc4cccc(Br)c4)CC3)c(Cl)c2)=NN1 [Compound 8l, 6-[4-(2-{4-[3-(3-bromo-phenoxy)-2-hydroxy-propylamino]-piperidin-1-yl}-2-oxo-ethoxy)-3-chloro-phenyl]-4,5-dihydro-2H-pyridazin-3-one]
< 1000 | < 100 | C=CCc1ccccc1OC[C@@H](O)CNC1CCN(C(=O)COc2ccc(C3=NNC(=O)CC3)cc2Cl)CC1 [Compound 8j, 6-[4-(2-{4-[3-(2-allyl-phenoxy)-2-hydroxy-propylamino]-piperidin-1-yl}-2-oxo-ethoxy)-3-chloro-phenyl]-4,5-dihydro-2H-pyridazin-3-one]
< 1000 | – | N#Cc1ccccc1OC[C@@H](O)CNC1CCN(C(=O)COc2ccc(C3=NNC(=O)CC3)cc2Cl)CC1 [Compound 8e, 2-[3-(1-{2-[2-chloro-4-(6-oxo-1,4,5,6-tetrahydro-pyridazin-3-yl)-phenoxy]-acetyl}-piperidin-4-ylamino)-2-hydroxy-propoxy]-benzonitrile]
< 1000 | – | COCCc1ccc(OC[C@@H](O)CNC2CCN(C(=O)COc3ccc(C4=NNC(=O)CC4)cc3Cl)CC2)cc1 [Compound 8r, 6-{3-chloro-4-[2-(4-{2-hydroxy-3-[4-(2-methoxy-ethyl)-phenoxy]-propylamino}-piperidin-1-yl)-2-oxo-ethoxy]-phenyl}-4,5-dihydro-2H-pyridazin-3-one]
< 1000 | – | N#Cc1ccc(OC[C@@H](O)CNC2CCN(C(=O)COc3ccc(C4=NNC(=O)CC4)cc3Cl)CC2)cc1 [Compound 8o, 4-[3-(1-{2-[2-chloro-4-(6-oxo-1,4,5,6-tetrahydro-pyridazin-3-yl)-phenoxy]-acetyl}-piperidin-4-ylamino)-2-hydroxy-propoxy]-benzonitrile]

Further lines, the molecule ahead of its results:

Compound | IC50 (read-out: PDE3 inhibition IC50) [nM] | IC50 [1] [nM]
O=C1CCC(c2ccc(OCC(=O)N3CCC(NCC(O)COc4cccc5[nH]c6ccccc6c45)CC3)c(Cl)c2)=NN1 (centres unmarked) [Compound 63, 6-[4-(2-{4-[3-(9H-Carbazol-4-yloxy)-2-hydroxy-propylamino]-piperidin-1-yl}-2-oxo-ethoxy)-3-chloro-phenyl]-4,5-dihydro-2H-pyridazin-3-one] | < 1000 | –
COCCc1ccc(OC[C@@H](O)CNCCCOc2ccc(C3=NNC(=O)CC3)cc2Cl)cc1 [Compound 36] | < 1000 | < 100
O=C(COc1ccc(C2=NNC(=O)CC2)cc1Cl)NCCNCC(O)COc1cccc2[nH]c3ccccc3c12 (centres unmarked) [Compound 70] | < 1000 | < 100
O=C1CCC(c2ccc(OCCCCCNCC(O)COc3cccc4[nH]c5ccccc5c34)c(Cl)c2)=NN1 (centres unmarked) [Compound 57] | < 1000 | –
COCCc1ccc(OC[C@@H](O)CNC2CN(C(=O)COc3ccc(C4=NNC(=O)CC4)cc3Cl)C2)cc1 [Compound 48, 6-{3-Chloro-4-[2-(3-{(S)-2-hydroxy-3-[4-(2-methoxy-ethyl)-phenoxy]-propylamino}-azetidin-1-yl)-2-oxo-ethoxy]-phenyl}-4,5-dihydro-2H-pyridazin-3-one] | < 1000 | –
O=C1CCC(c2ccc(OCCCNC[C@H](O)COc3cccc4[nH]c5ccccc5c34)c(Cl)c2)=NN1 [Compound 29, 6-(4-{3-[(S)-3-(9H-Carbazol-4-yloxy)-2-hydroxy-propylamino]-propoxy}-3-chloro-phenyl)-4,5-dihydro-2H-pyridazin-3-one] | < 1000 | < 100
O=C1CCC(c2ccc(OCCCNC[C@H](O)COc3ccc4c(c3)[nH]c3ccccc34)c(Cl)c2)=NN1 [Compound 35, 6-(4-{3-[(S)-3-(9H-Carbazol-2-yloxy)-2-hydroxy-propylamino]-propoxy}-3-chloro-phenyl)-4,5-dihydro-2H-pyridazin-3-one] | < 1000 | –
O=C1CCC(c2ccc(OCCCCNCC(O)COc3cccc4[nH]c5ccccc5c34)c(Cl)c2)=NN1 (centres unmarked) [Compound 56] | < 1000 | < 100
COCCc1ccc(OC[C@@H](O)CNC(C)(C)CNC(=O)COc2ccc(C3=NNC(=O)CC3)cc2Cl)cc1 [Compound 40, 2-[2-Chloro-4-(6-oxo-1,4,5,6-tetrahydro-pyridazin-3-yl)-phenoxy]-N-(2-{(S)-2-hydroxy-3-[4-(2-methoxy-ethyl)-phenoxy]-propylamino}-2-methyl-propyl)-acetamide] | < 1000 | –
COCCc1ccc(OC[C@@H](O)CNC2CCN(C(=O)COc3ccc(C4=NNC(=O)CC4)cc3Cl)C2)cc1 (stereo partly drawn) [Compound 42, 6-{3-Chloro-4-[2-(3-{(S)-2-hydroxy-3-[4-(2-methoxy-ethyl)-phenoxy]-propylamino}-pyrrolidin-1-yl)-2-oxo-ethoxy]-phenyl}-4,5-dihydro-2H-pyridazin-3-one] | < 1000 | –
O=C1CCC(c2ccc(OCC(=O)N3CC(NCC(O)COc4cccc5[nH]c6ccccc6c45)C3)c(Cl)c2)=NN1 (centres unmarked) [Compound 75, 6-[4-(2-{3-[3-(9H-Carbazol-4-yloxy)-2-hydroxy-propylamino]-azetidin-1-yl}-2-oxo-ethoxy)-3-chloro-phenyl]-4,5-dihydro-2H-pyridazin-3-one] | < 1000 | –
O=C1CCC(c2ccc(OCCNCC(O)COc3cccc4[nH]ccc34)c(Cl)c2)=NN1 (centres unmarked) [Compound 52] | < 1000 | < 100
O=C1CCC(c2ccc(OCC(=O)N3CCC(NC[C@H](O)COc4ccc5c(c4)[nH]c4ccccc45)CC3)c(Cl)c2)=NN1 [Compound 33, 6-[4-(2-{4-[(S)-3-(9H-Carbazol-2-yloxy)-2-hydroxy-propylamino]-piperidin-1-yl}-2-oxo-ethoxy)-3-chloro-phenyl]-4,5-dihydro-2H-pyridazin-3-one] | < 1000 | –
O=C1CCC(c2ccc(OCCCNCC(O)COc3cccc4[nH]c5ccccc5c34)c(Cl)c2)=NN1 (centres unmarked) [Compound 64, 6-(4-{3-[3-(9H-Carbazol-4-yloxy)-2-hydroxy-propylamino]-propoxy}-3-chloro-phenyl)-4,5-dihydro-2H-pyridazin-3-one] | < 1000 | < 100
O=C1CCC(c2ccc(OCCNC[C@H](O)COc3cccc4[nH]c5ccccc5c34)c(Cl)c2)=NN1 [Compound 22, 6-(4-{2-[(S)-3-(9H-carbazol-4-yloxy)-2-hydroxy-propylamino]-ethoxy}-3-chloro-phenyl)-4,5-dihydro-2H-pyridazin-3-one] | < 1000 | < 100
COCCc1ccc(OC[C@@H](O)CNCCCCCOc2ccc(C3=NNC(=O)CC3)cc2Cl)cc1 [Compound 46] | < 1000 | –
O=C1CCC(c2ccc(OCCNCC(O)COc3ccc4c(c3)[nH]c3ccccc34)c(Cl)c2)=NN1 (centres unmarked) [Compound 34, 6-(4-{2-[3-(9H-carbazol-2-yloxy)-2-hydroxy-propylamino]-ethoxy}-3-chloro-phenyl)-4,5-dihydro-2H-pyridazin-3-one] | < 1000 | –
